# Measured values from patent US8394786B2, “Quinazoline derivatives” (Janssen Pharmaceutica N.V., priority 2003, dated 2013).
# Columns and labels:
# EGFR [1] = target: T1, EGFR (Homo sapiens, UniProt P00533); test: ELISA assay of EGFR tyrosine kinase activity (C4); type: biochemical; settings: poly(Glu, Tyr) coated plate, 5 μM ATP, room temperature 10 min
# Experimental: The EGFR ELISA is generally described by Yang, E. B. et al., 2001, Biochimica et Biophysica Acta, 1550; 144.
# For the determination of EGFR tyrosine kinase activity, 100 μl of 0.4 μg/ml poly(Glu, Tyr) in PBS was coated per well on a 96-well microplate at 37° C. overnight. […] After washing three times with PBS the plates were either used immediately or stored at 4° C. Prior to the determination of the EGFR tyrosine kinase activity, the coated plates were washed two times with PBS. Next, to each well 88 μl of an ATP dilution (50 mM Tris HCl pH 8.0, 10 mM MgCl2, 100 μM Na3VO4, 1 mM DTT, 5 μM ATP) and 2 μl with various concentrations of the compounds to be tested, were added. The EGFR tyrosine kinase-catalysed reaction was started by the addition of 10 μl of diluted EGFR (dilution→0.05 μg per well enzyme diluted in 50 mM TrisHCl pH 8.0+0.1% BSA). After incubation at room temperature for 10 min, the reaction was stopped by washing five times with PBS with 0.1% Tween 20. Subsequently […] of recombinant anti-phosphotyrosine horseradish peroxidase conjugate (1:2500) in BSA (10 mg/ml in PBS) was added. After incubation at room temperature for 1 h, the microplate was washed five times with PBS/Tween 20. After the microplate was incubated with 100 μl of TMB-ELISA (1-step Ultra TMB-ELISA, Pierce) until colour development, 100 μl of 0.5 M H2SO4 was added to stop the reaction, and it was read in a microplate reader at 450-655 nm.
# Target sequence in this assay (P00533 25-1210): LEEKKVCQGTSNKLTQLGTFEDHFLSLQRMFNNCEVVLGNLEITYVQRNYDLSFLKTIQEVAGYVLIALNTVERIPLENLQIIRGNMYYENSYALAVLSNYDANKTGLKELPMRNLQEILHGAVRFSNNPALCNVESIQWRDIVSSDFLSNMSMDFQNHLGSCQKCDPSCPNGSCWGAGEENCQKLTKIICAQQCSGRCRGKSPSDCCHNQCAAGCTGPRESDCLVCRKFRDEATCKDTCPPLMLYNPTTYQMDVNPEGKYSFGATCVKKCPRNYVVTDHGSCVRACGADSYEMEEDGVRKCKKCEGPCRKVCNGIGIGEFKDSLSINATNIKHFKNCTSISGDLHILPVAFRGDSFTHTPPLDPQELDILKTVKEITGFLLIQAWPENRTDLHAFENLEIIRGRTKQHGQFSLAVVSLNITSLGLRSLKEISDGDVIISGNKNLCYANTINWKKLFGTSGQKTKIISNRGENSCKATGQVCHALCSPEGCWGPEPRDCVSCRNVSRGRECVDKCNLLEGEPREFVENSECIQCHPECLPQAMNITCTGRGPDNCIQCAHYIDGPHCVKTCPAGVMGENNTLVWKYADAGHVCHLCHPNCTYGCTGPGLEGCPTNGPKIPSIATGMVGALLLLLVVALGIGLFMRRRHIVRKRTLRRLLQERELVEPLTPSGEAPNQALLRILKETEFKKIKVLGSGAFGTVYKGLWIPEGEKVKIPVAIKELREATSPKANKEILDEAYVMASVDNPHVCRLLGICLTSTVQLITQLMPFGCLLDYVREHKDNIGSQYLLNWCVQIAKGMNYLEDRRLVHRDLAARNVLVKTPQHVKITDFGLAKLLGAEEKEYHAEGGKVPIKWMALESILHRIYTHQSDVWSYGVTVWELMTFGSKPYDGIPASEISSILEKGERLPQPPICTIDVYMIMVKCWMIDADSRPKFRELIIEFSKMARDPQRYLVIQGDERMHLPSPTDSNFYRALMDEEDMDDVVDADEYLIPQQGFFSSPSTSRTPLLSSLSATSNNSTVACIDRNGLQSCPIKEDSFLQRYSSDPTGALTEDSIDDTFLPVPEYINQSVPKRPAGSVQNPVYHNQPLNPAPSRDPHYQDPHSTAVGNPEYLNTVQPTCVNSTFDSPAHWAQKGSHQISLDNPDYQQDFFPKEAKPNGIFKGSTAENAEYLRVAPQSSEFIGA
# SKOV3 cells = test: Serum starved proliferation assay on the ovarian carcinoma SKOV3 cells (C3); type: cell-based; settings: Homo sapiens, SK-OV-3, 72 h, EGF stimulated (100 ng/ml, 72 hours, serum free) or 72 hours with compounds; MTT cell viability assay; read-out: SKOV3 cell (C3): pIC50 (converted)
# Summary of the method: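 MTT viability read-out in SKOV3 cells after a 24 h pre-incubation in 10% FCS, in one of two formats. EGF-stimulated version: serum-free compound exposure followed by 100 ng/ml EGF (final) for 72 h at 37 °C, 5% CO2. Otherwise, compound alone for 72 h.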
# A431 cells = test: Proliferation assay on the squamous carcinoma cell line A431 cells (C5); type: cell-based; settings: Homo sapiens, A-431; 72 hours with compounds; MTT cell viability assay; read-out: A431 cell (C5): pIC50 (converted)
# Experimental: The squamous carcinoma cell line (A431) was used in a cell proliferation assay, to assess the inhibitory effect of the compounds in whole cells.
# In a first step the A431 cells were incubated for 24 hours in the presence of 10% FCS serum. In the second step the cells were incubated for 72 hours with the compounds to be tested at a final concentration of 100 ng/ml. The effect of the compounds on the cell proliferation was finally assessed in a standard MTT cell viability assay.
# EGFR [2] = target: T1, EGFR; test: In vitro inhibition of EGFR, Flash Plate or glass-fiber filter technology (C2); type: biochemical; parameters: 0.5 μg EGFR-kinase domain/well; settings: EGFR-kinase domain, 5.0 μM unlabeled ATP, read-out: Kinase activity.(C2): pIC50 (converted)
# Summary of the method: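 Two radiometric formats were used, each with 5.0 μM unlabeled ATP, [33P]ATP, 0.5 μg EGFR kinase domain and compounds from 1·10^−10 to 1·10^−6 M. Glass-fiber filter: 25° C for 10 min, pH 7.5, Mn2+/Mg2+, acid-stopped, phosphorimager read. Streptavidin Flash Plate: biotinylated poly(GT), pH 8.0, 30° C for 60 min.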
# Target sequence in this assay (P00533 712-979 limits assumed): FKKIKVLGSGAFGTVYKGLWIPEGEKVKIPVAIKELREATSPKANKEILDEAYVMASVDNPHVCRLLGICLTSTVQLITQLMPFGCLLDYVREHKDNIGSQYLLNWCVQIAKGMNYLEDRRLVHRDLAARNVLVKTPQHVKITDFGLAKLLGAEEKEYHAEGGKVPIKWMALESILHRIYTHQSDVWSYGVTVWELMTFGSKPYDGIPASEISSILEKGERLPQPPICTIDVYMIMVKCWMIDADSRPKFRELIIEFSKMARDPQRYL
SMILES,IC50 (EGFR [1]),IC50 (SKOV3 cells),IC50 (A431 cells),IC50 (EGFR [2]),melting point
"COC(=O)c1ccc2c(c1)Nc1ncnc3cc(OC)c(cc13)OCCCCCCO2 [Compound 10, 4,6-ethanediylidene-19H-pyrimido[4,5-b][6,13,1]benzodioxaazacyclo-pentadecine-17-carboxylic acid, 8,9,10,11,12,13-hexahydro-20-methoxy-, methyl ester]",> 1000 nM,> 10000 nM,> 3160 nM,50.1 nM,–
"COc1cc2ncnc3c2cc1OCCCCCCOc1ccc(C(=O)O)cc1N3 [Compound 11, 4,6-ethanediylidene-19H-pyrimido[4,5-b][6,13,1]benzodioxaazacyclo-pentadecine-17-carboxylic acid, 8,9,10,11,12,13-hexahydro-20-methoxy-]",> 1000 nM,> 10000 nM,> 3160 nM,> 10000 nM,–
"COc1cc2ncnc3c2cc1OCCCCCCOc1ccc(C(=O)N2CCCC2)cc1N3 [Compound 12, pyrrolidine, 1-[(8,9,10,11,12,13-hexahydro-20-methoxy-4,6-ethane-diylidene-19H-pyrimido[4,5-b][6,13,1]benzodioxaazacyclopentadecin-17-yl)carbonyl]-]",> 1000 nM,> 10000 nM,> 3160 nM,> 10000 nM,–
"Oc1cc2ncnc3c2cc1OCCCCCCOc1ccc(Br)cc1N3 [Compound 16, 4,6-ethanediylidene-19H-pyrimido[4,5-b][6,13,1]benzodioxaazacyclo-pentadecin-20-ol, 17-bromo-8,9,10,11,12,13-hexahydro-]",> 1000 nM,–,–,2510 nM,–
"Brc1ccc2c(c1)Nc1ncnc3ccc(cc13)OCCCCCCO2 [Compound 18, 4,6-ethanediylidene-19H-pyrimido[4,5-b][6,13,1]benzodioxaazacyclo-pentadecine, 17-bromo-8,9,10,11,12,13-hexahydro-]",> 1000 nM,> 10000 nM,–,79.4 nM,–
"COc1cc2ncnc3c2cc1OCCCCCNCc1ccc(Br)cc1N3 [Compound 20, 4,6-ethanediylidenepyrimido[4,5-b][6,1,12]benzoxadiazacyclo-pentadecine, 17-bromo-8,9,10,11,12,13,14,19-octahydro-20-methoxy-]",–,229 nM,1260 nM,25.1 nM,–
"COc1cc2ncnc3c2cc1OCCCCOCCc1ccc(Cl)cc1N3 [Compound 23, 4,6-ethanediylidene-13H-pyrimido[4,5-b][6,11,1]benzodioxaazacyclo-pentadecine, 17-chloro-8,9,10,11,14,19-hexahydro-20-methoxy-]",–,60.3 nM,501 nM,10 nM,–
"COc1cc2ncnc3c2cc1OCCCCCCCCON=Cc1ccc(Cl)cc1N3 [Compound 24, 4,6-ethanediylidene-23H-pyrimido[4,5-b][6,15,1,16]benzo-dioxadiazacyclononadecine, 21-chloro-8,9,10,11,12,13,14,15-octahydro-24-methoxy-]",–,3160 nM,> 3160 nM,20 nM,127.2 to 132.2 °C
"COc1cc2ncnc3c2cc1OCCCCCCCCOc1cccc(c1)N3 [Compound 25, 22H-4,6-ethanediylidene-21,17-methenopyrimido[5,4-d][1,12,6]dioxaazacycloeicosine, 8,9,10,11,12,13,14,15-octahydro-24-methoxy-]",–,> 10000 nM,> 3160 nM,631 nM,–
"COc1cc2ncnc3c2cc1OCCCNC(=O)CCc1ccc(Cl)cc1N3 [Compound 26, 4,6-ethenopyrimido[4,5-b][6,1,10]benzoxadiazacyclopentadecin-12(13H)-one, 17-chloro-8,9,10,11,14,19-hexahydro-20-methoxy-]",–,120 nM,2000 nM,2.51 nM,–
"COCCOc1cc2ncnc3c2cc1OCCCCCCOc1ccc(Br)cc1N3 [Compound 28, 4,6-ethanediylidene-19H-pyrimido[4,5-b][6,13,1]benzodioxaazacyclopentadecine, 17-bromo-8,9,10,11,12,13-hexahydro-20-(2-methoxyethoxy)-]",–,1450 nM,1580 nM,25.1 nM,–
"COc1cc2ncnc3c2cc1OCCCCCN(C(=O)OC(C)(C)C)Cc1cc(F)c(Cl)cc1N3 [Compound 29, 4,6-ethanediylidenepyrimido[4,5-b][6,1,12]benzoxadiazacyclopentadecine-13(8H)-carboxylic acid, 17-chloro-16-fluoro-9,10,11,12,14,19-hexahydro-20-methoxy-, 1,1-dimethylethyl ester]",–,> 10000 nM,> 3160 nM,794 nM,–
"COc1cc2ncnc3c2cc1OCCCCCNCc1cc(F)c(Cl)cc1N3 [Compound 30, 4,6-ethanediylidenepyrimido[4,5-b][6,1,12]benzoxadiazacyclopentadecine, 17-chloro-16-fluoro-8,9,10,11,12,13,14,19-octahydro-20-methoxy-]",–,1020 nM,> 1000 nM,31.6 nM,–
"COc1cc2ncnc3c2cc1OCCN(CCN1CCOCC1)CCCOc1ccc(Cl)cc1N3 [Compound 33, 4,6-etheno-19H-pyrimido[5,4-k][1,8,5,13]benzodioxadiazacyclopentadecine, 17-chloro-8,9,10,11,12,13-hexahydro-20-methoxy-10-[2-(4-morpholinyl)ethyl]-]",–,1740 nM,1580 nM,25.1 nM,–
"COc1cc2ncnc3c2cc1OCCCCCCOc1ccc(-c2ccccc2)cc1N3 [Compound 34, 4,6-ethanediylidene-19H-pyrimido[4,5-b][6,13,1]benzodioxaazacyclopentadecine, 8,9,10,11,12,13-hexahydro-20-methoxy-17-phenyl-]",–,> 10000 nM,> 3160 nM,63.1 nM,–
"COc1cc2ncnc3c2cc1OCCCCCCOc1ccc(-c2cccc(C#N)c2)cc1N3 [Compound 35, benzonitrile, 3-(8,9,10,11,12,13-hexahydro-20-methoxy-4,6-ethanediylidene-19H-pyrimido[4,5-b][6,13,1]benzodioxaazacyclopentadecin-17-yl)-]",–,> 10000 nM,> 3160 nM,3980 nM,–
"COc1cc2ncnc3c2cc1OCCCCCCNC(=O)c1ccc(Cl)cc1N3 [Compound 36, 4,6-ethanediylidene-8H-pyrimido[4,5-b][6,1,13]benzoxadiazacyclohexadecin-15(20H)-one, 18-chloro-9,10,11,12,13,14-hexahydro-21-methoxy-]",–,166 nM,> 3160 nM,15.8 nM,–
"COc1cc2ncnc3c2cc1OCCCCCCOc1cc(Cl)ccc1N3 [Compound 37, 4,6-ethanediylidene-19H-pyrimido[4,5-b][6,13,1]benzodioxaazacyclopentadecine, 16-chloro-8,9,10,11,12,13-hexahydro-20-methoxy-]",–,> 10000 nM,> 3160 nM,> 10000 nM,–
"COc1cc2ncnc3c2cc1OCCCCCOCCc1ccc(Cl)cc1N3 [Compound 38, 4,6-ethanediylidene-8H,14H-pyrimido[4,5-b][6,12,1]benzodioxaazacyclohexadecine, 18-chloro-9,10,11,12,15,20-hexahydro-21-methoxy-]",–,126 nM,1260 nM,20 nM,–
"COc1cc2ncnc3c2cc1OCCOCCOCCc1ccc(Cl)cc1N3 [Compound 39, 4,6-ethanediylidene-14H-pyrimido[4,5-b][6,9,12,1]benzotrioxaazacyclohexadecine, 18-chloro-8,9,11,12,15,20-hexahydro-21-methoxy-]",–,200 nM,1580 nM,20 nM,–
"COc1cc2ncnc3c2cc1OCCCC(=O)NCCCc1ccc(Cl)cc1N3 [Compound 40, 4,6-ethanediylidene-8H-pyrimido[4,5-b][6,1,11]benzoxadiazacyclohexadecin-11(12H)-one, 18-chloro-9,10,13,14,15,20-hexahydro-21-methoxy-]",–,50.1 nM,631 nM,31.6 nM,–
